Assay results from patent US8697684B2, “Azetidinyl diamides as monoacylglycerol lipase inhibitors” (Janssen Pharmaceutica NV, priority 2009, dated 2014).

Test system: rat
Assay: CFA-Induced Paw Radiant Heat Hypersensitivity
Assay type: in vivo
Conditions: CFA thermal hypersensitivity, 30 mg/kg p.o., HPβCD, group mean values, last time point 180 or 300 min
Method: Each rat was placed in a test chamber on a warm glass surface and allowed to acclimate for approximately 10 min. A radiant thermal stimulus (beam of light) was then focused through the glass onto the plantar surface of each hind paw in turn. The thermal stimulus was automatically shut off by a photoelectric relay when the paw was moved or when the cut-off time was reached (20 sec for radiant heat at ˜5 amps). An initial (baseline) response latency to the thermal stimulus was recorded for each animal prior to the injection of complete Freund's adjuvant (CFA). 24 h following intraplantar CFA injection, the response latency of the animal to the thermal stimulus was then re-evaluated and compared to the animal's baseline response time. […] Post-compound treatment withdrawal latencies were assessed at fixed time intervals, typically 30, 60, 120, 180, and 300 min.
The percent reversal (% R) of hypersensitivity was calculated in one of two different ways: 1) using group mean values or 2) using individual animal values. […]
Method 1. For all compounds, the % R of hypersensitivity was calculated using the mean value for groups of animals at each time point according to the following formula: % reversal=[(group treatment response−group CFA response)/(group baseline response−group CFA response)]×100 Results are given for the maximum % reversal observed for each compound at any time point tested. […]

O=C(c1ccc(-c2cccc(C(F)(F)F)c2)c(Cl)c1)N1CC(N2CCN(C(=O)c3cscn3)CC2)C1 [Cpd 1102]
Method 1: peak % reversal: 38%
